PMC4767141, “Discovery of Potent, Orally Bioavailable, Small-Molecule Inhibitors of WNT Signaling from a Cell-Based Pathway Screen” (Journal of Medicinal Chemistry, 2015)

Legend:
AT1 (h) = molecular target: T1, AT1 (h) (Homo sapiens, UniProt P30556); experiment: CEREP binding panel; details: antagonist radioligand, read-out: % Inhibition of Control Specific Binding
T1 construct: purchased Millipore KinaseProfiler (kinases); Cerep (receptors and ion channels)

CCK1 (CCKA) (h) = molecular target: T2, CCK1 (CCKA) (h) (Homo sapiens, UniProt P32238); experiment: CEREP binding panel; details: agonist radioligand, read-out: % Inhibition of Control Specific Binding
T2 construct: purchased Millipore KinaseProfiler (kinases); Cerep (receptors and ion channels)

H1 (h) = molecular target: T3, H1 (h) (Homo sapiens, UniProt P35367); experiment: CEREP binding panel; details: antagonist radioligand, read-out: % Inhibition of Control Specific Binding
T3 construct: purchased Millipore KinaseProfiler (kinases); Cerep (receptors and ion channels)

MC4 (h) = molecular target: T4, MC4 (h) (Homo sapiens, UniProt P32245); experiment: CEREP binding panel; details: agonist radioligand, read-out: % Inhibition of Control Specific Binding
T4 construct: purchased Millipore KinaseProfiler (kinases); Cerep (receptors and ion channels)

δ2 (DOP) (h) = molecular target: T5, δ2 (DOP) (h) (Homo sapiens, UniProt P41143); experiment: CEREP binding panel; details: agonist radioligand, read-out: % Inhibition of Control Specific Binding
T5 construct: purchased Millipore KinaseProfiler (kinases); Cerep (receptors and ion channels)

κ (KOP) = molecular target: T6, κ (KOP) (Rattus norvegicus, UniProt P34975); experiment: CEREP binding panel; details: agonist radioligand, read-out: % Inhibition of Control Specific Binding
T6 construct: purchased Millipore KinaseProfiler (kinases); Cerep (receptors and ion channels)

5-HT1A (h) = molecular target: T7, 5-HT1A (h) (Homo sapiens, UniProt P08908); experiment: CEREP binding panel; details: agonist radioligand, read-out: % Inhibition of Control Specific Binding
T7 construct: purchased Millipore KinaseProfiler (kinases); Cerep (receptors and ion channels)

5-HT6 (h) = molecular target: T8, 5-HT6 (h) (Homo sapiens, UniProt P50406); experiment: CEREP binding panel; details: agonist radioligand, read-out: % Inhibition of Control Specific Binding
T8 construct: purchased Millipore KinaseProfiler (kinases); Cerep (receptors and ion channels)

[1] = system: Ca2+ channel (L, verapamil site) (phenylalkylamine); experiment: CEREP binding panel; details: 10 μM, antagonist radioligand
KV channel = experiment: CEREP binding panel; details: 10 μM, antagonist radioligand
5-HT transporter (h) = molecular target: T9, 5-HT transporter (h) (Homo sapiens, UniProt P31645); experiment: CEREP binding panel; details: antagonist radioligand, read-out: % Inhibition of Control Specific Binding
T9 construct: purchased Millipore KinaseProfiler (kinases); Cerep (receptors and ion channels)

ABL = molecular target: T10, ABL (Homo sapiens, UniProt P00519); experiment: Millipore kinase panel; format: biochemical; details: read-out: % Control
T10 construct: purchased Millipore KinaseProfiler (kinases); Cerep (receptors and ion channels)

BLK = experiment: Millipore kinase panel; format: biochemical; details: 1 μM, ATP at Km
BTK = molecular target: T11, BTK (Homo sapiens, UniProt Q06187); experiment: Millipore kinase panel; format: biochemical; details: read-out: % Control
T11 construct: purchased Millipore KinaseProfiler (kinases); Cerep (receptors and ion channels)

CAMKIV = molecular target: T12, CAMKIV (Homo sapiens, UniProt Q16566); experiment: Millipore kinase panel; format: biochemical; details: read-out: % Control
T12 construct: purchased Millipore KinaseProfiler (kinases); Cerep (receptors and ion channels)

CDK2/CYCLINA = molecular target: T13, CDK2/CYCLINA (Homo sapiens, UniProt P24941); experiment: Millipore kinase panel; format: biochemical; details: read-out: % Control
T13 construct: purchased Millipore KinaseProfiler (kinases); Cerep (receptors and ion channels)

CDK5/P25 = molecular target: T14, CDK5/P25 (Homo sapiens, UniProt Q00535); experiment: Millipore kinase panel; format: biochemical; details: read-out: % Control
T14 construct: purchased Millipore KinaseProfiler (kinases); Cerep (receptors and ion channels)

CSK = molecular target: T15, CSK (Homo sapiens, UniProt P41240); experiment: Millipore kinase panel; format: biochemical; details: read-out: % Control
T15 construct: purchased Millipore KinaseProfiler (kinases); Cerep (receptors and ion channels)

DMPK = molecular target: T16, DMPK (Homo sapiens, UniProt Q09013); experiment: Millipore kinase panel; format: biochemical; details: read-out: % Control
T16 construct: purchased Millipore KinaseProfiler (kinases); Cerep (receptors and ion channels)

EPHA3 = molecular target: T17, EPHA3 (Homo sapiens, UniProt P29320); experiment: Millipore kinase panel; format: biochemical; details: read-out: % Control
T17 construct: purchased Millipore KinaseProfiler (kinases); Cerep (receptors and ion channels)

EPHA5 = molecular target: T18, EPHA5 (Homo sapiens, UniProt P54756); experiment: Millipore kinase panel; format: biochemical; details: read-out: % Control
T18 construct: purchased Millipore KinaseProfiler (kinases); Cerep (receptors and ion channels)

FER = molecular target: T19, FER (Homo sapiens, UniProt P16591); experiment: Millipore kinase panel; format: biochemical; details: read-out: % Control
T19 construct: purchased Millipore KinaseProfiler (kinases); Cerep (receptors and ion channels)

FGFR4 = molecular target: T20, FGFR4 (Homo sapiens, UniProt P22455); experiment: Millipore kinase panel; format: biochemical; details: read-out: % Control
T20 construct: purchased Millipore KinaseProfiler (kinases); Cerep (receptors and ion channels)

IRAK1 = molecular target: T21, IRAK1 (Homo sapiens, UniProt P51617); experiment: Millipore kinase panel; format: biochemical; details: read-out: % Control
T21 construct: purchased Millipore KinaseProfiler (kinases); Cerep (receptors and ion channels)

JAK3 = molecular target: T22, JAK3 (Homo sapiens, UniProt P52333); experiment: Millipore kinase panel; format: biochemical; details: read-out: % Control
T22 construct: purchased Millipore KinaseProfiler (kinases); Cerep (receptors and ion channels)

JNK2ALPHA2 = molecular target: T23, JNK2ALPHA2 (Homo sapiens, UniProt P45984); experiment: Millipore kinase panel; format: biochemical; details: read-out: % Control
T23 construct: purchased Millipore KinaseProfiler (kinases); Cerep (receptors and ion channels)

CKIT = molecular target: T24, CKIT (Homo sapiens, UniProt P10721); experiment: Millipore kinase panel; format: biochemical; details: read-out: % Control
T24 construct: purchased Millipore KinaseProfiler (kinases); Cerep (receptors and ion channels)

MAPK1 = molecular target: T25, MAPK1 (Homo sapiens, UniProt P27361); experiment: Millipore kinase panel; format: biochemical; details: read-out: % Control
T25 construct: purchased Millipore KinaseProfiler (kinases); Cerep (receptors and ion channels)

MINK = molecular target: T26, MINK (Homo sapiens, UniProt Q8N4C8); experiment: Millipore kinase panel; format: biochemical; details: read-out: % Control
T26 construct: purchased Millipore KinaseProfiler (kinases); Cerep (receptors and ion channels)

MSK2 = molecular target: T27, MSK2 (Homo sapiens, UniProt O75676); experiment: Millipore kinase panel; format: biochemical; details: read-out: % Control
T27 construct: purchased Millipore KinaseProfiler (kinases); Cerep (receptors and ion channels)

MSSK1 = molecular target: T28, MSSK1 (Homo sapiens, UniProt Q9UPE1); experiment: Millipore kinase panel; format: biochemical; details: read-out: % Control
T28 construct: purchased Millipore KinaseProfiler (kinases); Cerep (receptors and ion channels)

MUSK = molecular target: T29, MUSK (Homo sapiens, UniProt O15146); experiment: Millipore kinase panel; format: biochemical; details: read-out: % Control
T29 construct: purchased Millipore KinaseProfiler (kinases); Cerep (receptors and ion channels)

PAK2 = molecular target: T30, PAK2 (Homo sapiens, UniProt Q13177); experiment: Millipore kinase panel; format: biochemical; details: read-out: % Control
T30 construct: purchased Millipore KinaseProfiler (kinases); Cerep (receptors and ion channels)

PIM-1 = molecular target: T31, PIM-1 (Homo sapiens, UniProt P11309); experiment: Millipore kinase panel; format: biochemical; details: read-out: % Control
T31 construct: purchased Millipore KinaseProfiler (kinases); Cerep (receptors and ion channels)

PLK3 = molecular target: T32, PLK3 (Homo sapiens, UniProt Q9H4B4); experiment: Millipore kinase panel; format: biochemical; details: read-out: % Control
T32 construct: purchased Millipore KinaseProfiler (kinases); Cerep (receptors and ion channels)

PRKX = molecular target: T33, PRKX (Homo sapiens, UniProt P51817); experiment: Millipore kinase panel; format: biochemical; details: read-out: % Control
T33 construct: purchased Millipore KinaseProfiler (kinases); Cerep (receptors and ion channels)

SAPK2A = molecular target: T34, SAPK2A (Homo sapiens, UniProt Q16539); experiment: Millipore kinase panel; format: biochemical; details: read-out: % Control
T34 construct: purchased Millipore KinaseProfiler (kinases); Cerep (receptors and ion channels)

SRPK1 = molecular target: T35, SRPK1 (Homo sapiens, UniProt Q96SB4); experiment: Millipore kinase panel; format: biochemical; details: read-out: % Control
T35 construct: purchased Millipore KinaseProfiler (kinases); Cerep (receptors and ion channels)

ZAP-70 = molecular target: T36, ZAP-70 (Homo sapiens, UniProt P43403); experiment: Millipore kinase panel; format: biochemical; details: read-out: % Control
T36 construct: purchased Millipore KinaseProfiler (kinases); Cerep (receptors and ion channels)

FAK = molecular target: T37, FAK (Homo sapiens, UniProt Q05397); experiment: Millipore kinase panel; format: biochemical; details: read-out: % Control
T37 construct: purchased Millipore KinaseProfiler (kinases); Cerep (receptors and ion channels)

HASPIN = molecular target: T38, HASPIN (Homo sapiens, UniProt Q8TF76); experiment: Millipore kinase panel; format: biochemical; details: read-out: % Control
T38 construct: purchased Millipore KinaseProfiler (kinases); Cerep (receptors and ion channels)

TXK = molecular target: T39, TXK (Homo sapiens, UniProt P42681); experiment: Millipore kinase panel; format: biochemical; details: read-out: % Control
T39 construct: purchased Millipore KinaseProfiler (kinases); Cerep (receptors and ion channels)

TEC ACTIVATED = molecular target: T40, TEC ACTIVATED (Homo sapiens, UniProt P42680); experiment: Millipore kinase panel; format: biochemical; details: read-out: % Control
T40 construct: purchased Millipore KinaseProfiler (kinases); Cerep (receptors and ion channels)

IR, ACTIVATED = molecular target: T41, IR, ACTIVATED (Homo sapiens, UniProt P06213); experiment: Millipore kinase panel; format: biochemical; details: read-out: % Control
T41 construct: purchased Millipore KinaseProfiler (kinases); Cerep (receptors and ion channels)

T32 sequence (Q9H4B4 whole entry): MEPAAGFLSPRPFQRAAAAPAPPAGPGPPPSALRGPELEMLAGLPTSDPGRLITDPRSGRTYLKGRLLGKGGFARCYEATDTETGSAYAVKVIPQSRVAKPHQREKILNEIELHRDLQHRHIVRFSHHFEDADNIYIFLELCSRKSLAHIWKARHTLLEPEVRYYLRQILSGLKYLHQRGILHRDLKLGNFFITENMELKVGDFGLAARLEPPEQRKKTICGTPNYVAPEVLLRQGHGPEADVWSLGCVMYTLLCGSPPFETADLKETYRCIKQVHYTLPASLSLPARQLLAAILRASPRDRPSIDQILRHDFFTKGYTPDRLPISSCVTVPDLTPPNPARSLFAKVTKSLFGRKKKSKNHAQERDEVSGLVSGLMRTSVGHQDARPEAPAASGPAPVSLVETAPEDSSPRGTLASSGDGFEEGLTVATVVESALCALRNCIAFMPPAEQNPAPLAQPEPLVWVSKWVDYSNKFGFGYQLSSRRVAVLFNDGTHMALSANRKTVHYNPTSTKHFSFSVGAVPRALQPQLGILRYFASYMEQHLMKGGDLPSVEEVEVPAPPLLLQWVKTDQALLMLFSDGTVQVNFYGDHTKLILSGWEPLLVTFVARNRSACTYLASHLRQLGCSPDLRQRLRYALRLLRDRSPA
T25 sequence (P27361 whole entry): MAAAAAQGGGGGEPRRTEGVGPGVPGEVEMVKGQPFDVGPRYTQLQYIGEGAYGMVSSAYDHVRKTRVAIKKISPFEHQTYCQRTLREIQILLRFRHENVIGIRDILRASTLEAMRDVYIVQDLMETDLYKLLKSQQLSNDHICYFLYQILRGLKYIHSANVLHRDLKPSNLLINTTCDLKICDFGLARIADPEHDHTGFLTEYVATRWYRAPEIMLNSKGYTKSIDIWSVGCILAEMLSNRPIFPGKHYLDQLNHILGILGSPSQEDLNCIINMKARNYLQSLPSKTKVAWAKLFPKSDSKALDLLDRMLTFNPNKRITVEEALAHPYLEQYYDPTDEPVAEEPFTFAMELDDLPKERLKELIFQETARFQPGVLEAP
T17 sequence (P29320 21-983): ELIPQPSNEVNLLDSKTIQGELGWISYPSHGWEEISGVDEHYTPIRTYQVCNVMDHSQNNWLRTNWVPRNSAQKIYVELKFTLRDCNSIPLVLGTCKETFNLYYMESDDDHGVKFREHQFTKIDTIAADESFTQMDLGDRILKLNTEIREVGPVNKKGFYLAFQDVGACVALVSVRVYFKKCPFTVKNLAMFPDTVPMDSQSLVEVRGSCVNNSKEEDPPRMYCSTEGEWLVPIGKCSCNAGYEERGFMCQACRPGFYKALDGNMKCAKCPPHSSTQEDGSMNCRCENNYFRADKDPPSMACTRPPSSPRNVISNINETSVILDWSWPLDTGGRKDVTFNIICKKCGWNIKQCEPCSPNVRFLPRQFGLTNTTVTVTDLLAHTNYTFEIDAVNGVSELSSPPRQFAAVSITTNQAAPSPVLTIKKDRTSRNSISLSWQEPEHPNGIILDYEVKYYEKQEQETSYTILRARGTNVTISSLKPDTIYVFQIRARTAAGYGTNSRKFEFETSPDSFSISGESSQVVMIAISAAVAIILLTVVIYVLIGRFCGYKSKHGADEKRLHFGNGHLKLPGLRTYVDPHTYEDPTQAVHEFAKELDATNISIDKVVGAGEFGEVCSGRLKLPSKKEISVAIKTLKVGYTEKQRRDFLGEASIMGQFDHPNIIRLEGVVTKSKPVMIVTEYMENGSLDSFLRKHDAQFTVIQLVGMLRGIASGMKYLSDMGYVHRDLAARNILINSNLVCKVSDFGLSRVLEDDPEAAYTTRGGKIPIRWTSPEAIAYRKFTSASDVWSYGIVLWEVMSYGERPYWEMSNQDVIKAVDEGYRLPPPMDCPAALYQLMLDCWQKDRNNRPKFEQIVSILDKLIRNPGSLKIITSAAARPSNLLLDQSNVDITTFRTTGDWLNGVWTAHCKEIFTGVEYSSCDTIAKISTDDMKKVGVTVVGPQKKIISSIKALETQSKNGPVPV
T27 sequence (O75676 whole entry): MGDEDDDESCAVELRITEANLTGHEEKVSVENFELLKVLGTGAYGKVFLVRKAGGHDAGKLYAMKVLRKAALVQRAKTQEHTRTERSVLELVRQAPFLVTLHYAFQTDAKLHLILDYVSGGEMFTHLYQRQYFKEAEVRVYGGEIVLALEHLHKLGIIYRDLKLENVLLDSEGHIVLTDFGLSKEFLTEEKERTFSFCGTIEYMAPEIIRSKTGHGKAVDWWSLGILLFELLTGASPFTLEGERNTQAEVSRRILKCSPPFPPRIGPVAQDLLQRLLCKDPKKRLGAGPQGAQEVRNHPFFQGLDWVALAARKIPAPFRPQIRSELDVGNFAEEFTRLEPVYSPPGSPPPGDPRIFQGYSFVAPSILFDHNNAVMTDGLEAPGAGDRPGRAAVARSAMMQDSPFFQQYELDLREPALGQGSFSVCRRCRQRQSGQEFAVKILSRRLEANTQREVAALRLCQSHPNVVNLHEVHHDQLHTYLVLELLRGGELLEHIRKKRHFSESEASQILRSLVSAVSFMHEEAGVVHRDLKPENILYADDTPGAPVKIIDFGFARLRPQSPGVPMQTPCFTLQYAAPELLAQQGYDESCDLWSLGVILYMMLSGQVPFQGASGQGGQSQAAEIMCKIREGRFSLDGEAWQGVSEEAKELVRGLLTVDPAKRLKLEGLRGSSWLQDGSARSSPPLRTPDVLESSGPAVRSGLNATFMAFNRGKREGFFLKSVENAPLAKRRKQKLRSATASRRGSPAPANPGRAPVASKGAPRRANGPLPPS
T22 sequence (P52333 whole entry): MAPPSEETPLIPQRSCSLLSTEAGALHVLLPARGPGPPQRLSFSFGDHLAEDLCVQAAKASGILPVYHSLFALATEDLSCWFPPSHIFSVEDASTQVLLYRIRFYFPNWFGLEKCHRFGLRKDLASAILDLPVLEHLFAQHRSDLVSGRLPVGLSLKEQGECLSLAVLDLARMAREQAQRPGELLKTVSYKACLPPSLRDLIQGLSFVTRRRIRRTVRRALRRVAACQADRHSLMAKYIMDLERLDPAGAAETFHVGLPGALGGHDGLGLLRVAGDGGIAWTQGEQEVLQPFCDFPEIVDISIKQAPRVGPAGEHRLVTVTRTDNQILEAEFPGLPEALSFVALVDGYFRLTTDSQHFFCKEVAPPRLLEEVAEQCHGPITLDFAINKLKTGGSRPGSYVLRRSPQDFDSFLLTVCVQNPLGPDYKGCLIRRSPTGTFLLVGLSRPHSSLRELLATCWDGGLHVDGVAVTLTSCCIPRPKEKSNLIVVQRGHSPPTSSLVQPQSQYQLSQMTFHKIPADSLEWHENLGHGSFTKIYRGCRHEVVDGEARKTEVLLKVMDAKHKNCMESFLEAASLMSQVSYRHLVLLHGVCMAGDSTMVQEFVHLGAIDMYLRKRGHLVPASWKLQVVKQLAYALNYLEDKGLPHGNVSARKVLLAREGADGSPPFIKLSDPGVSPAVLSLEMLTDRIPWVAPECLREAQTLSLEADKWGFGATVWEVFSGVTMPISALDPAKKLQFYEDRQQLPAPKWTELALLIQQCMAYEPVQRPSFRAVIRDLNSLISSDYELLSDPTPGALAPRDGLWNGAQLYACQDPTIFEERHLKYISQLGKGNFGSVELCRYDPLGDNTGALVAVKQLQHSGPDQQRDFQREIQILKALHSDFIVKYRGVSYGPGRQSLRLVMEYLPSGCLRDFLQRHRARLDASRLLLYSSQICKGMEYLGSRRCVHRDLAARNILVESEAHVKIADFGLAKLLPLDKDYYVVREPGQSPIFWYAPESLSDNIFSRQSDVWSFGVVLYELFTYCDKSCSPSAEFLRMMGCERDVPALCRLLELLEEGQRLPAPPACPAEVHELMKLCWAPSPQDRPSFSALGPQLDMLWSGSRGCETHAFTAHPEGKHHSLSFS
T37 sequence (Q05397 whole entry): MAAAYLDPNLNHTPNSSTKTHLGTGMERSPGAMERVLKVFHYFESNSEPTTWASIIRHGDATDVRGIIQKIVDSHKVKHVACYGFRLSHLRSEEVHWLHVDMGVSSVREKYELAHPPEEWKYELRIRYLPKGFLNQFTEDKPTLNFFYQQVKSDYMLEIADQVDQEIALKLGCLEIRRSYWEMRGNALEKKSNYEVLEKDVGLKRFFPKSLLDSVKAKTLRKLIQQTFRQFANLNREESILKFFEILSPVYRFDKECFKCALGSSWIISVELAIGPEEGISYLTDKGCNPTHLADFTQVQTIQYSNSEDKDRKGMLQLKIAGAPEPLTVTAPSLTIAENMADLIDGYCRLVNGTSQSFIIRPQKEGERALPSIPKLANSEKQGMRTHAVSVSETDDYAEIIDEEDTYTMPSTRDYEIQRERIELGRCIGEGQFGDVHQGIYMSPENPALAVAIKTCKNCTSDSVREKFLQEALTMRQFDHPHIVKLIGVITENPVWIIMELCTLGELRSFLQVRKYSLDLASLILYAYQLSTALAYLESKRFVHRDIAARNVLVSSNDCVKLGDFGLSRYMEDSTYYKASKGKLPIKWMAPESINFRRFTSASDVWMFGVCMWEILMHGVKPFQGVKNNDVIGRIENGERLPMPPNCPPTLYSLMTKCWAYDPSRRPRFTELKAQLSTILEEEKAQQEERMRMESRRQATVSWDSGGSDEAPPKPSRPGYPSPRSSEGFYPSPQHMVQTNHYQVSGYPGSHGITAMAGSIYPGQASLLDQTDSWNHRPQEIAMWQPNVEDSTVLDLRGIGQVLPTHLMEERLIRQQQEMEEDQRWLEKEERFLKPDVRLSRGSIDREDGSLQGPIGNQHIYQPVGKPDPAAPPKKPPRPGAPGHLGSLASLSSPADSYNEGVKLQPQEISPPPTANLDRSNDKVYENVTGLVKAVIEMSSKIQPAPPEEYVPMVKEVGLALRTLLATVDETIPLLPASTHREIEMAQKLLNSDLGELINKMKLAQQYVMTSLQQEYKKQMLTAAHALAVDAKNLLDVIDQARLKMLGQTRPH

With `O=C1NCCC12CCN(c1c(Cl)cncc1-c1ccc(N3CCOCC3)cc1)CC2` [Compound 44, 8-(3-Chloro-5-(4-morpholin-4-ylphenyl)pyridin-4-yl)-2,8-diazaspiro[4.5]decan-1-one] the inhibition at 10 µM (AT1 (h)) was 2%, the inhibition at 10 µM (CCK1 (CCKA) (h)) was -16% and the inhibition at 10 µM (H1 (h)) was -5%. The inhibition at 10 µM (MC4 (h)) was 10%, the inhibition at 10 µM (δ2 (DOP) (h)) was 12% and the inhibition at 10 µM (κ (KOP)) was 42%. For the same compound, the inhibition at 10 µM (5-HT1A (h)) was 11%, the inhibition at 10 µM (5-HT6 (h)) was -5% and the “% Inhibition of Control Specific Binding” value [1] was 9%. The “% Inhibition of Control Specific Binding” value (KV channel) was 2%, the inhibition at 10 µM (5-HT transporter (h)) was 17% and the remaining activity at 1 µM (ABL) was 4%. The “% Control” value (BLK) was 16%, the remaining activity at 1 µM (BTK) was -2% and the remaining activity at 1 µM (CAMKIV) was -8%. The remaining activity at 1 µM (CDK2/CYCLINA) was -9%, the remaining activity at 1 µM (CDK5/P25) was 0% and the remaining activity at 1 µM (CSK) was -1%. The remaining activity at 1 µM (DMPK) was -7%, the remaining activity at 1 µM (EPHA3) was 10% and the remaining activity at 1 µM (EPHA5) was 11%. It also gave a remaining activity at 1 µM (FER) of 11%, a remaining activity at 1 µM (FGFR4) of 7% and a remaining activity at 1 µM (IRAK1) of 4%. It also gave a remaining activity at 1 µM (JAK3) of -4%, a remaining activity at 1 µM (JNK2ALPHA2) of 9% and a remaining activity at 1 µM (CKIT) of 12%. The remaining activity at 1 µM (MAPK1) was 10%, the remaining activity at 1 µM (MINK) was 7% and the remaining activity at 1 µM (MSK2) was 0%. For the same compound, the remaining activity at 1 µM (MSSK1) was -10%, the remaining activity at 1 µM (MUSK) was 10% and the remaining activity at 1 µM (PAK2) was 12%. For the same compound, the remaining activity at 1 µM (PIM-1) was 1%, the remaining activity at 1 µM (PLK3) was -17% and the remaining activity at 1 µM (PRKX) was 1%. The remaining activity at 1 µM (SAPK2A) was -1%, the remaining activity at 1 µM (SRPK1) was -20% and the remaining activity at 1 µM (ZAP-70) was 13%. The remaining activity at 1 µM (FAK) was -14%, the remaining activity at 1 µM (HASPIN) was 21% and the remaining activity at 1 µM (TXK) was 4%. It also gave a remaining activity at 1 µM (TEC ACTIVATED) of 4% and a remaining activity at 1 µM (IR, ACTIVATED) of 17%.
